# Assay results taken from US6706470B2, “Gene switches” (priority 1999, dated 2004).
# Starred links: 1 amine or outer side, 2 acyl side, 3 side chain; linkers in the order of their positions; H or OH if unused. Positions of bridges follow the written chain, without caps; N, C: chain ends. Non-standard residues stand in square brackets, D forms with d. Residues, ends and D or L forms follow the SMILES beside them. Chains are numbered I, II in the order given. Actinocin(9to1) = Cc1c2oc3c(C)ccc(C(=O)[*:1])c3nc-2c(C(=O)[*:2])c(N)c1=O; NMeV = CN[C@H](C(=O)O)C(C)C; Sar = CNCC(=O)O
# Tests used:
# DNA sequence AAAAAGGCG = assay: Phage ELISA: zinc finger phage binding to DNA with and without distamycin A; details: DNA concentration constant at 2 nM
# [1] = system: CAT reporter gene downstream of the sequence AAAAAAGGCG; assay: Transient transfection CAT reporter assay; format: cell-based; details: in the presence of Distamycin A; zinc finger-HSV VP16 fusion cotransfected
# [2] = system: DNA target AAAAAGCGGAAAAA; assay: Dissociation of zinc finger phage from its DNA target by distamycin A; format: binding
# Procedure: (§1) This example describes phage that bound DNA targets with higher affinity in the absence of ligand. These phage were isolated using either: (a) the same method as in example 1.1, or (b) by selection in the absence of small molecule and phage elution from DNA using a small molecule.
# (§2) Phage selection is over 4 rounds. Binding reactions contain 10 pmol biotinylated DNA site immobilised on 50 mg streptavidin coated beads (Dynal) and a 1 ml solution of zinc finger phage library (as described in 1.1) Reactions were incubated for 1 h on a rolling platform. After this time, beads were washed 20 times as described in 1.1 and finally phage were eluted from the beads over 5 minutes using a solution containg ligand (10 μM Distamycin A, or 1 μM Actinomycin D in PBS/Zn).
# Some phage isolated by either of the above methods (a or b) bound DNA in the absence of ligand but could be displaced by concentrations of distamycin A at 10 μM and actinomycin D at 1 μM. The distamycin sensitive clone was selected using the DNA target AAAAAGCGGAAAAA (SEQ ID NO:48) and its helices were sequenced as: […]
# DNA target AGCTTGGCG = assay: Dissociation of zinc finger phage from its DNA target by actinomycin D; format: binding
# Procedure: as §1, §2
# The actinomycin D sensitive clone was selected with the DNA target AGCTTGGCG and its helices were sequenced as: […]
ligand concentration at which phage retention is close to background level (DNA sequence AAAAAGGCG),effect of ligand on phage binding to specific DNA sequence ([2]; FIG. 6),Compound,CAT gene expression [1],ligand concentration that displaces DNA-bound phage ([2]; distamycin sensitive clone) [µM],effect of ligand on phage binding to specific DNA sequence (DNA target AGCTTGGCG; FIG. 6),ligand concentration that displaces DNA-bound phage (DNA target AGCTTGGCG; actinomycin D sensitive clone) [µM]
≤ 10^−9 M,dissociated from the DNA,Cn1cc(NC(=O)c2cc(NC(=O)c3cc(NC=O)cn3C)cn2C)cc1C(=O)NCCC(=N)N [distamycin A],CAT expression is observed,10,–,–
–,–,"Cc1c2oc3c(C)ccc(C(=O)N[C@@H]4C(=O)N[C@H](C(C)C)C(=O)N5CCC[C@H]5C(=O)N(C)CC(=O)N(C)[C@@H](C(C)C)C(=O)O[C@@H]4C)c3nc-2c(C(=O)N[C@@H]2C(=O)N[C@H](C(C)C)C(=O)N3CCC[C@H]3C(=O)N(C)CC(=O)N(C)[C@@H](C(C)C)C(=O)O[C@@H]2C)c(N)c1=O [actinomycin D] (I: T[dV]P[Sar][NMeV] / II: T[dV]P[Sar][NMeV]; ester I:1-I:C, II:1-II:C; linker I:N-II:N via Actinocin(9to1))",–,–,dissociated from the DNA,1
